# Patent US20150005281A1, “PYRIMIDINE-2,4-DIAMINE DERIVATIVES AS KINASE INHIBITORS” (Cellzome Limited, priority 2011, published 2015)
# How the values were obtained:
# Format in all cases: binding
# JAK1 = target: T1, JAK1 (Homo sapiens, UniProt P23458); assay: Kinobeads assay with immunodetection, JAK1; details: for IC50: Kinobeads assay, mixed Molt4/Ramos lysate, read-out: Inhibition values (IC50) JAK1
# T1 construct: endogenous in cells; host or cells: Molt4 (ATCC CRL-1582) and Ramos (ATCC CRL-1596) cells; mixed lysate 1:2
# Procedure, shortened: (§1)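 Lysates of Molt4 and Ramos cells, combined 1:2 and diluted to 10 mg/mL in Tris pH 7.4 buffer with 0.8% NP40, are incubated for 3 h in the cold with compound and the affinity matrix. Beads are washed, eluted in SDS buffer, and kinases are quantified by infrared immunodetection to give IC50s.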
# JAK2 = target: T2, JAK2 (Homo sapiens, UniProt O60674); assay: Kinobeads assay with immunodetection, JAK2; details: mixed Molt4/Ramos lysate, read-out: Inhibition values (IC50) JAK2
# T2 construct: endogenous in cells; host or cells: Molt4 (ATCC CRL-1582) and Ramos (ATCC CRL-1596) cells; mixed lysate 1:2
# Procedure, shortened: as §1
# JAK3 = target: T3, JAK3 (Homo sapiens, UniProt P52333); assay: Kinobeads assay with immunodetection, JAK3; details: for IC50: Kinobeads assay, mixed Molt4/Ramos lysate, read-out: Inhibition values (IC50) JAK3
# T3 construct: endogenous in cells; host or cells: Molt4 (ATCC CRL-1582) and Ramos (ATCC CRL-1596) cells; mixed lysate 1:2
# T3 sequence (P52333 1-1124): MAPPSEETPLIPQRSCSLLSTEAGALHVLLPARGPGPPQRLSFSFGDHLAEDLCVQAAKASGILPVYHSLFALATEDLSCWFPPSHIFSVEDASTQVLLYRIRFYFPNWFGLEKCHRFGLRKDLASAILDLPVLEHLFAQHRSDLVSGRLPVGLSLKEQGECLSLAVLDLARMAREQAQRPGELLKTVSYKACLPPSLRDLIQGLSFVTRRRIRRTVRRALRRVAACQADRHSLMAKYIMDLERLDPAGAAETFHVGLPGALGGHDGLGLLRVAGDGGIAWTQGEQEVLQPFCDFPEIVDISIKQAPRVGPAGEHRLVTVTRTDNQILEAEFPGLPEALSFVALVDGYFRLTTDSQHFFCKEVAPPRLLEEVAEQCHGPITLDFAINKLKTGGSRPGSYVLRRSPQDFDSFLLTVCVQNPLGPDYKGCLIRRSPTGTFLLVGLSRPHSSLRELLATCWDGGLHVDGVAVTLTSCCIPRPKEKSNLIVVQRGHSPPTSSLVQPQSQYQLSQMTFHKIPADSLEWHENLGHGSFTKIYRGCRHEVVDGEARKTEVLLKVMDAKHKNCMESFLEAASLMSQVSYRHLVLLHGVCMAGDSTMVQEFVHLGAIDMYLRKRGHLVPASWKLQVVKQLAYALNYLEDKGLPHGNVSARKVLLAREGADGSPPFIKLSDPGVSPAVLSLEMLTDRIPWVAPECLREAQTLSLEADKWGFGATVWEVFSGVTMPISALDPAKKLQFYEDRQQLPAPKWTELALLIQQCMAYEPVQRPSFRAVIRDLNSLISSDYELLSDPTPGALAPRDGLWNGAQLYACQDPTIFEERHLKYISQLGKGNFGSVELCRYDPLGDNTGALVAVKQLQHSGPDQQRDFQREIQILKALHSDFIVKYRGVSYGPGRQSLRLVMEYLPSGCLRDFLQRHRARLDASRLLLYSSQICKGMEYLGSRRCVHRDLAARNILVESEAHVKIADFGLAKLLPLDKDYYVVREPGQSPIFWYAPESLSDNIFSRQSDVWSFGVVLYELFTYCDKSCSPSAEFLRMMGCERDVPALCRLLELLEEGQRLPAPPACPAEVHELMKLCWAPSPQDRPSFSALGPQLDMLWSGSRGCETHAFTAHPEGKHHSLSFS
# Procedure, shortened: as §1
# TYK2 = target: T4, TYK2 (Homo sapiens, UniProt P29597); assay: Kinobeads assay with immunodetection, TYK2; details: for IC50: Kinobeads assay, mixed Molt4/Ramos lysate, read-out: Inhibition values (IC50) Tyk2
# T4 construct: endogenous in cells; host or cells: Molt4 (ATCC CRL-1582) and Ramos (ATCC CRL-1596) cells; mixed lysate 1:2
# Procedure, shortened: as §1
# T1 sequence (P23458 whole entry): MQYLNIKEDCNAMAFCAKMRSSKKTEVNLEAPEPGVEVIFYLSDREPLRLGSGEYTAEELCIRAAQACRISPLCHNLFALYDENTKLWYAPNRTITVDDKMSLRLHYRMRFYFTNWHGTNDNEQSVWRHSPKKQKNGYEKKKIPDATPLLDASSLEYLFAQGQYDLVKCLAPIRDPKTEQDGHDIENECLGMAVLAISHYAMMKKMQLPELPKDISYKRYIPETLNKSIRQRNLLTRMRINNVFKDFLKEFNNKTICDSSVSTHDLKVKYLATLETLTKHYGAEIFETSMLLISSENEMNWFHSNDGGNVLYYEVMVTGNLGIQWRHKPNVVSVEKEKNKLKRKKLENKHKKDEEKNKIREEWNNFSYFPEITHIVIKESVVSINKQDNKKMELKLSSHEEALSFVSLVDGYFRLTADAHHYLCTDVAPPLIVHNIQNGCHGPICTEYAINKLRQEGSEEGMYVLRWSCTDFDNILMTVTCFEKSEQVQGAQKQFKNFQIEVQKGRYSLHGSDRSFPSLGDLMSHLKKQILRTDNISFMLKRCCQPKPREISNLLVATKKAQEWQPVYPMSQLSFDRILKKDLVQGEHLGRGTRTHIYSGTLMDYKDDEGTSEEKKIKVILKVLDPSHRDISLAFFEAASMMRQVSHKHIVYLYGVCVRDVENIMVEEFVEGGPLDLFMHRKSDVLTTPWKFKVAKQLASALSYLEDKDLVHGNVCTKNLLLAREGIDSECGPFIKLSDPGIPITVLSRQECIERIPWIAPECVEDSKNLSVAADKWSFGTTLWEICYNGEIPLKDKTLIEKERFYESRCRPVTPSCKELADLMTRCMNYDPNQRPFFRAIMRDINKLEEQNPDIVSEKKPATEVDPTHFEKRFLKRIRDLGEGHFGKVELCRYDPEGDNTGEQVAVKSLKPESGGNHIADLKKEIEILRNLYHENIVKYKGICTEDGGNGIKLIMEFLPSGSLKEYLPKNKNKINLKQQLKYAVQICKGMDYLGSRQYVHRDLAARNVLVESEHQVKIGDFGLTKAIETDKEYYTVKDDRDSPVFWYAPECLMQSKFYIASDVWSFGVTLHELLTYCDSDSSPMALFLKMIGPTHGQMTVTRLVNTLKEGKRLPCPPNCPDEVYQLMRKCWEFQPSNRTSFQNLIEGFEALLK
# T4 sequence (P29597 whole entry): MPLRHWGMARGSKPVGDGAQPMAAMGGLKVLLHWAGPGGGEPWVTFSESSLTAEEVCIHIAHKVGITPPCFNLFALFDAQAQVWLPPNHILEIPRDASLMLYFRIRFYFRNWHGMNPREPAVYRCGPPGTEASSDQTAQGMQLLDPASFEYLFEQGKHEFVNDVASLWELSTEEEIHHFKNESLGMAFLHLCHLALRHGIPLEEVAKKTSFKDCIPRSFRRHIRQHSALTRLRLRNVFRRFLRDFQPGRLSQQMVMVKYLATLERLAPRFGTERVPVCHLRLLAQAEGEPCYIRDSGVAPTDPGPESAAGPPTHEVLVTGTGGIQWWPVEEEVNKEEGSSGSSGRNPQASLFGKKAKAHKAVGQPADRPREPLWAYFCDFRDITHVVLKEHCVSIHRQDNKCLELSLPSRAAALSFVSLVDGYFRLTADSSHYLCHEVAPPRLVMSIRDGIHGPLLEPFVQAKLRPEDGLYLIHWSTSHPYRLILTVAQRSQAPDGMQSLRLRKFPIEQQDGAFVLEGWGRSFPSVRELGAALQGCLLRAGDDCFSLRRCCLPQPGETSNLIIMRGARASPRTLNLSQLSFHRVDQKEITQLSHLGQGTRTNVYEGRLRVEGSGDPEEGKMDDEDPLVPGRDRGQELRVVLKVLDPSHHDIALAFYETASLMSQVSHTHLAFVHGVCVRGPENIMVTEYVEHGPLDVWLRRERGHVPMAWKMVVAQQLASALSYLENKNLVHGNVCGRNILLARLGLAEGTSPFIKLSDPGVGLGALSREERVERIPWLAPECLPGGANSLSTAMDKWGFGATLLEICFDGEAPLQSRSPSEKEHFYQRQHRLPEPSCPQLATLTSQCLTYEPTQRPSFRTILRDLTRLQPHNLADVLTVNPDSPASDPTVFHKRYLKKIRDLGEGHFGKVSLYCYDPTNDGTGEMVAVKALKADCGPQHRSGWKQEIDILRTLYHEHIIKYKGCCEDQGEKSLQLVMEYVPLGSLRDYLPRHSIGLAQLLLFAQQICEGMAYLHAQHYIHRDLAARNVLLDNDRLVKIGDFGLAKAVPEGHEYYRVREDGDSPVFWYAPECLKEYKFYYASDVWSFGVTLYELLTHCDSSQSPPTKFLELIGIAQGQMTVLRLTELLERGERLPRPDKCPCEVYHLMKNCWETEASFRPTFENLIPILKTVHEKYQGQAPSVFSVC
# T2 sequence (O60674 whole entry): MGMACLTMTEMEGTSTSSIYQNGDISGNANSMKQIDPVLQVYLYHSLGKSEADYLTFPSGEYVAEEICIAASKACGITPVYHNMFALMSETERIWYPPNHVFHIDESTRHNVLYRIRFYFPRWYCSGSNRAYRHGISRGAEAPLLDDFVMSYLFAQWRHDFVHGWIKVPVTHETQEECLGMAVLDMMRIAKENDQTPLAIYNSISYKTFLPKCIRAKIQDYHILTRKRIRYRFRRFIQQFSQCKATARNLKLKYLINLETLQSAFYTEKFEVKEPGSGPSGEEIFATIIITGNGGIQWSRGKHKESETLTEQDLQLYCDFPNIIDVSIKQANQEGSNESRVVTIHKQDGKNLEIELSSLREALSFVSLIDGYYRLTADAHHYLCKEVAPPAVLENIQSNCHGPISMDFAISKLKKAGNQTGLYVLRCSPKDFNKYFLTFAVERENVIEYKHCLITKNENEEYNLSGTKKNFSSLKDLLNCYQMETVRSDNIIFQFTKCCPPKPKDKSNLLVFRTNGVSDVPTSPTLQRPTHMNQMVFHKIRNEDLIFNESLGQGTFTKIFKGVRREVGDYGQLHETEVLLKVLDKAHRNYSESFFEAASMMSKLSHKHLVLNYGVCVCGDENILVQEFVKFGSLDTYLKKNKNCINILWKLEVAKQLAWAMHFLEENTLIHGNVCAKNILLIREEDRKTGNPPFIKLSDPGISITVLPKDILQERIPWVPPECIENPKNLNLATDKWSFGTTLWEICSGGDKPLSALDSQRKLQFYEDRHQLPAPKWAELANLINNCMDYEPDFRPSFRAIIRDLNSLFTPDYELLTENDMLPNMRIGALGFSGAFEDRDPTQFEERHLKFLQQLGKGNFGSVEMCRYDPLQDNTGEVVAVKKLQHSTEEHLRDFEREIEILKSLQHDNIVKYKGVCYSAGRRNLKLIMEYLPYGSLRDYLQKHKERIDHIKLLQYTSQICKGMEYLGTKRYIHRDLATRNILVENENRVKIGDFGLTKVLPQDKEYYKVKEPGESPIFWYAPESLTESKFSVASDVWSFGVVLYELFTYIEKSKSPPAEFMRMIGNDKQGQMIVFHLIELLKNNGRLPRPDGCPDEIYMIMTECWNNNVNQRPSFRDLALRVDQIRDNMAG
IC50 (JAK1),IC50 (JAK2),IC50 (JAK3),IC50 (TYK2),"Selectivity ratio over JAK2, Tyk2 (TYK2)","Selectivity ratio over JAK2, JAK1 (JAK1)","Selectivity ratio over JAK2, JAK3 (JAK3)",SMILES
< 100 nM,100 to 1000 nM,< 100 nM,< 100 nM,Tyk2 = 68,,,"Cn1cc(Nc2ncc(Cl)c(NC[C@H]3CCCN3C3CCS(=O)(=O)C3)n2)cn1 (stereo partly drawn) [Example 115, 3-((R)-2-(((5-chloro-2-((1-methyl-1H-pyrazol-4-yl)amino)pyrimidin-4-yl)amino)methyl)pyrrolidin-1-yl)tetrahydrothiophene 1,1-dioxide]"
< 100 nM,1000 to 10000 nM,< 100 nM,< 100 nM,,JAK1 = 70,,"Cc1cnc(Nc2cnn(CC(F)F)c2)nc1NC[C@H]1CCCN1CCS(C)(=O)=O [Example 116, (R)—N^2-(1-(2,2-difluoroethyl)-1H-pyrazol-4-yl)-5-methyl-N^4-((1-(2-(methylsulfonyl)ethyl)pyrrolidin-2-yl)methyl)pyrimidine-2,4-diamine]"
< 100 nM,1000 to 10000 nM,< 100 nM,< 100 nM,Tyk2 = 140,,,"Cc1cnc(Nc2cnn(CC(F)F)c2)nc1NC[C@H]1CCCN1CCC#N [Example 117, (R)-3-(2-(((2-((1-(2,2-difluoroethyl)-1H-pyrazol-4-yl)amino)-5-methylpyrimidin-4-yl)amino)methyl)pyrrolidin-1-yl)propanenitrile]"
< 100 nM,100 to 1000 nM,100 to 1000 nM,< 100 nM,,JAK1 = 69,,"Cc1cnc(Nc2cnn(CC(F)F)c2)nc1NC[C@H]1CCCN1C(=O)CC#N [Example 118, (R)-3-(2-(((2-((1-(2,2-difluoroethyl)-1H-pyrazol-4-yl)amino)-5-methylpyrimidin-4-yl)amino)methyl)pyrrolidin-1-yl)-3-oxopropanenitrile]"
< 100 nM,1000 to 10000 nM,1000 to 10000 nM,100 to 1000 nM,,JAK1 = 68,,"Cn1cc(Nc2ncc(Cl)c(NC[C@@H]3CCCN3CCCS(C)(=O)=O)n2)cn1 [Example 119, (S)-5-chloro-N^2-(1-methyl-1H-pyrazol-4-yl)-N^4-((1-(3-(methylsulfonyl)propyl)pyrrolidin-2-yl)methyl)pyrimidine-2,4-diamine]"
< 100 nM,1000 to 10000 nM,1000 to 10000 nM,100 to 1000 nM,,JAK1 = 81,,"Cc1cnc(Nc2cnn(CC(F)F)c2)nc1NC[C@@H]1C[C@H](F)CN1CCS(C)(=O)=O [Example 120, N^2-(1-(2,2-difluoroethyl)-1H-pyrazol-4-yl)-N^4-(((2S,4S)-4-fluoro-1-(2-(methylsulfonyl)ethyl)pyrrolidin-2-yl)methyl)-5-methylpyrimidine-2,4-diamine]"
< 100 nM,1000 to 10000 nM,100 to 1000 nM,< 100 nM,,JAK1 = 56,,"Cc1cnc(Nc2cnn(CC(F)F)c2)nc1NC[C@@H]1C[C@H](F)CN1CCC#N [Example 121, 3-((2S,4S)-2-(((2-((1-(2,2-difluoroethyl)-1H-pyrazol-4-yl)amino)-5-methylpyrimidin-4-yl)amino)methyl)-4-fluoropyrrolidin-1-yl)propanenitrile]"
< 100 nM,1000 to 10000 nM,1000 to 10000 nM,100 to 1000 nM,,JAK1 = 194,,"Cc1cnc(Nc2cnn(CC(F)F)c2)nc1NC[C@@H]1C[C@H](F)CN1C(=O)CCC#N [Example 122, 4-((2S,4S)-2-(((2-((1-(2,2-difluoroethyl)-1H-pyrazol-4-yl)amino)-5-methylpyrimidin-4-yl)amino)methyl)-4-fluoropyrrolidin-1-yl)-4-oxobutanenitrile]"
< 100 nM,1000 to 10000 nM,100 to 1000 nM,< 100 nM,,JAK1 = 182,,"Cc1cnc(Nc2cnn(CC(F)F)c2)nc1NC[C@@H]1CCCN1CCS(C)(=O)=O [Example 123, (S)—N^2-(1-(2,2-difluoroethyl)-1H-pyrazol-4-yl)-5-methyl-N^4-((1-(2-(methylsulfonyl)ethyl)pyrrolidin-2-yl)methyl)pyrimidine-2,4-diamine]"
< 100 nM,1000 to 10000 nM,100 to 1000 nM,< 100 nM,,JAK1 = 101,,"Cc1cnc(Nc2cnn(CC(F)F)c2)nc1NC[C@@H]1CCCN1C(=O)CC#N [Example 124, (S)-3-(2-(((2-((1-(2,2-difluoroethyl)-1H-pyrazol-4-yl)amino)-5-methylpyrimidin-4-yl)amino)methyl)pyrrolidin-1-yl)-3-oxopropanenitrile]"
< 100 nM,1000 to 10000 nM,100 to 1000 nM,< 100 nM,,JAK1 = 197,,"Cc1cnc(Nc2cnn(CC(F)F)c2)nc1NC[C@@H]1CCCN1C(=O)CCC#N [Example 125, (S)-4-(2-(((2-((1-(2,2-difluoroethyl)-1H-pyrazol-4-yl)amino)-5-methylpyrimidin-4-yl)amino)methyl)pyrrolidin-1-yl)-4-oxobutanenitrile]"
< 100 nM,100 to 1000 nM,100 to 1000 nM,< 100 nM,,,JAK3 = 46,"Cn1cc(Nc2ncc(Cl)c(NC[C@H]3CCCN3CCNS(C)(=O)=O)n2)cn1 [Example 126, (R)—N-(2-(2-(((5-chloro-2-((1-methyl-1H-pyrazol-4-yl)amino)pyrimidin-4-yl)amino)methyl)pyrrolidin-1-yl)ethyl)methanesulfonamide]"
< 100 nM,1000 to 10000 nM,100 to 1000 nM,100 to 1000 nM,,JAK1 = 83,,"Cc1cnc(Nc2cnn(CC(F)F)c2)nc1NC[C@H]1CCN(CCS(C)(=O)=O)C1 [Example 127, (R)—N^2-(1-(2,2-difluoroethyl)-1H-pyrazol-4-yl)-5-methyl-N^4-((1-(2-(methylsulfonyl)ethyl)pyrrolidin-3-yl)methyl)pyrimidine-2,4-diamine]"
< 100 nM,1000 to 10000 nM,100 to 1000 nM,100 to 1000 nM,,JAK1 = 77,,"Cc1cnc(Nc2cnn(CC(F)F)c2)nc1NC[C@H]1CCN(CCC#N)C1 [Example 128, (R)-3-(3-(((2-((1-(2,2-difluoroethyl)-1H-pyrazol-4-yl)amino)-5-methylpyrimidin-4-yl)amino)methyl)pyrrolidin-1-yl)propanenitrile]"
< 100 nM,1000 to 10000 nM,100 to 1000 nM,< 100 nM,,JAK1 = 139,,"Cc1cnc(Nc2cnn(CC(F)F)c2)nc1NC[C@H]1CCN(C(=O)CC#N)C1 [Example 129, (R)-3-(3-(((2-((1-(2,2-difluoroethyl)-1H-pyrazol-4-yl)amino)-5-methylpyrimidin-4-yl)amino)methyl)pyrrolidin-1-yl)-3-oxopropanenitrile]"
< 100 nM,100 to 1000 nM,100 to 1000 nM,< 100 nM,,JAK1 = 143,,"Cc1cnc(Nc2cnn(CC(F)F)c2)nc1NC[C@H]1CCN(C(=O)CCC#N)C1 [Example 130, (R)-4-(3-(((2-((1-(2,2-difluoroethyl)-1H-pyrazol-4-yl)amino)-5-methylpyrimidin-4-yl)amino)methyl)pyrrolidin-1-yl)-4-oxobutanenitrile]"
< 100 nM,100 to 1000 nM,< 100 nM,< 100 nM,,,JAK3 = 85,"Cn1cc(Nc2ncc(Cl)c(NC[C@H]3CCCN3CC#N)n2)cn1 [Example 131, (R)-2-(2-(((5-chloro-2-((1-methyl-1H-pyrazol-4-yl)amino)pyrimidin-4-yl)amino)methyl)pyrrolidin-1-yl)acetonitrile]"
